Results published in patent US7560536B2, “Morning glory-derived anticancer agents, and novel ipomoeassin compounds” (Virginia Tech Intellectual Properties, Inc., priority 2005, dated 2009).

The molecules below were run on A2780 human ovarian cancer cell line (assay: Cytotoxicity bioassay against the A2780 ovarian cancer cell line). Settings: A2780 human ovarian cancer cell line; read-out: IC50 against A2780.
Assay type: cell-based
Protocol: Cytotoxicity Bioassays. Cytotoxicity measurements were performed against the A2780 ovarian cancer cell line as previously described. The A2780 cell line is a drug-sensitive ovarian cancer cell line.

Structure (SMILES)	IC50 [nM]
C/C=C(\C)C(=O)OC1C(O)C2OC(COC(=O)CCC(=O)[C@@H](OC(C)=O)CCCCC[C@H](CCC)OC3OC(C)C(OC(C)=O)C(O)C3O2)C1OC(=O)/C=C/c1ccccc1 (stereo partly drawn) [Compound 4, Tetradecanoic acid, 11-[[4-O-acetyl-6-deoxy-2-O-[3-O-[(2E)-2-methyl-1-oxo-2-butenyl]-4-O-[(2E)-1-oxo-3-phenyl-2-propenyl]-β-D-glucopyranosyl]-β-D-galactopyranosyl]oxy]-5-(acetyloxy)-4-oxo-, intramol. 1,6″-ester, (5S,11S)-]	35

Same assay, conditions: Homo sapiens, A2780; read-out: IC50 (concentration that inhibited 50% of the growth of the A2780 human ovarian cell line)

Structure (SMILES)	IC50 [nM]
C/C=C(\C)C(=O)OC1C(O)C2OC(COC(=O)CCC(=O)CCCCCC[C@H](CCC)OC3OC(C)C(OC(C)=O)C(O)C3O2)C1OC(=O)/C=C/c1ccccc1 (stereo partly drawn) [Compound 1, Tetradecanoic acid, 11-[[4-O-acetyl-6-deoxy-2-O-[3-O-[(2E)-2-methyl-1-oxo-2-butenyl]-4-O-[(2E)-1-oxo-3-phenyl-2-propenyl]-β-D-glucopyranosyl]-β-D-galactopyranosyl]oxy]-4-oxo-, intramol. 1,6″-ester, (11S)-]	500
C/C=C(\C)C(=O)OC1C(O)C2OC(COC(=O)CCC(=O)CCCCCC[C@H](CCC)OC3OC(C)C(O)C(O)C3O2)C1OC(=O)/C=C/c1ccccc1 (stereo partly drawn) [Compound 2, Tetradecanoic acid, 11-[[6-deoxy-2-O-[3-O-[(2E)-2-methyl-1-oxo-2-butenyl]-4-O-[(2E)-1-oxo-3-phenyl-2-propenyl]-β-D-glucopyranosyl]-β-D-galactopyranosyl]oxy]-4-oxo-, intramol. 1,6″-ester, (11S)-]	400
C/C=C(\C)C(=O)OC1C(O)C2OC(COC(=O)CCC(=O)[C@@H](O)CCCCC[C@H](CCC)OC3OC(C)C(OC(C)=O)C(O)C3O2)C1OC(=O)/C=C/c1ccccc1 (stereo partly drawn) [Compound 3, Tetradecanoic acid, 11-[[4-O-acetyl-6-deoxy-2-O-[3-O-[(2E)-2-methyl-1-oxo-2-butenyl]-4-O-[(2E)-1-oxo-3-phenyl-2-propenyl]-β-D-glucopyranosyl]-β-D-galactopyranosyl]oxy]-5-hydroxy-4-oxo-, intramol. 1,6″-ester, (5S,11S)-]	2900
C/C=C(\C)C(=O)OC1C(O)C2OC(COC(=O)CCC(=O)[C@@H](OC(C)=O)CCCCC[C@H](CCC)OC3OC(C)C(OC(C)=O)C(O)C3O2)C1OC(=O)/C=C/c1ccccc1 (stereo partly drawn) [Compound 4, Tetradecanoic acid, 11-[[4-O-acetyl-6-deoxy-2-O-[3-O-[(2E)-2-methyl-1-oxo-2-butenyl]-4-O-[(2E)-1-oxo-3-phenyl-2-propenyl]-β-D-glucopyranosyl]-β-D-galactopyranosyl]oxy]-5-(acetyloxy)-4-oxo-, intramol. 1,6″-ester, (5S,11S)-]	35
C/C=C(\C)C(=O)OC1C(O)C2OC(COC(=O)CCC(=O)[C@@H](OC(C)=O)CCCCC[C@H](CCC)OC3OC(C)C(O)C(O)C3O2)C1OC(=O)/C=C/c1ccccc1 (stereo partly drawn) [Compound 5, Tetradecanoic acid, 5-(acetyloxy)-11-[[6-deoxy-2-O-[3-O-[(2E)-2-methyl-1-oxo-2-butenyl]-4-O-[(2E)-1-oxo-3-phenyl-2-propenyl]-β-D-glucopyranosyl]-β-D-galactopyranosyl]oxy]-4-oxo-, intramol. 1,6″-ester, (5S,11S)-]	3300
C/C=C(\C)C(=O)OC1C(OC(=O)/C=C/c2ccccc2)C2COC(=O)CCC(=O)CCCCCC[C@H](CCC)OC3OC(C)C(OC(C)=O)C(OC(C)=O)C3OC(O2)C1OC(C)=O (stereo partly drawn) [Compound 6, 3′,2″-O-Diacetyl ipomoeassin A]	15800
C/C=C(\C)C(=O)OC1C(OC(=O)/C=C/c2ccccc2)C2COC(=O)CCC(=O)[C@@H](OC(C)=O)CCCCC[C@H](CCC)OC3OC(C)C(OC(C)=O)C(OC(C)=O)C3OC(O2)C1OC(C)=O (stereo partly drawn) [Compound 7, 5,3′,2″-O-Triacetyl ipomoeassin C]	19100
C/C=C(\C)C(=O)OC1C(O)C2OC(COC(=O)CCC(=O)CCCCCCC(CCCCC)OC3OC(C)C(OC(C)=O)C(O)C3O2)C1OC(=O)/C=C/c1ccccc1 [Compound 14, Hexadecanoic acid, 11-[[4-O-acetyl-6-deoxy-2-O-[3-O-[(2E)-2-methyl-1-oxo-2-butenyl]-4-O-[(2E)-1-oxo-3-phenyl-2-propenyl]-β-D-glucopyranosyl]-β-D-galactopyranosyl]oxy]-4-oxo-, intramol. 1,6″-ester, (11S)-]	36
